Results: PMC9870305, “Efficacy of ultra-short, response-guided sofosbuvir and daclatasvir therapy for hepatitis C in a single-arm mechanistic pilot study” (eLife, 2023)
Where two headings read alike, the source gives them in different places. Values belong to the molecule of their own block, whether it stands above or below them.

Assays:
[1] = Plasma pharmacokinetics, naïve pooled non-compartmental analysis (days 0 and 28); format: in vivo, human; set-up: AUClast / AUC(0-t) / AUCINF / AUC(0-inf): concentration or dose not given beside the values; conditions: for drug accumulation: between day 0 and 28; for AUC(0-t) / AUClast: to 8 hours for SOF, 24 hours for GS-331007 and DCV; for half-life: read-out: t1/2, terminal elimination half-life (converted); for AUC(0-inf): po; for AUC(0-inf) / AUCINF: extrapolated to infinity
Protocol: (§1) In addition, intensive drug level sampling was conducted in a subset of 40 participants, who were sequentially invited to join an ancillary PK study. In this subgroup, five samples were collected in each participant after the first dose of SOF/DCV and at day 28, according to one of two randomly assigned sampling schedules (A and B). In sampling schedule A, drug levels were measured at 0.5-, 2-, 4-, 6- and 24-hr post-dose; in sampling schedule B, drug levels were measured at 1-, 3-, 5-, 8- and 24-hr post-dose.
(§2) Drug quantification was performed using liquid chromatography-tandem mass spectrometer at Mahidol Oxford Tropical Medicine Research Unit, Bangkok. Two separate analytical assays were developed and validated to quantify SOF plus its metabolite GS-331007, and DCV, respectively. Full methodological details of the PK/PD analysis are provided in Appendix 1.
Intensive drug levels of SOF, its metabolite GS-331007, and DCV from the subset of 40 patients at days 0 and 28, together with any EOT samples at day 28, were analysed using non-compartmental analysis in PKanalix version 2020R1 ([Lixoft, 2022]). Two separate analyses were performed to characterise the pharmacokinetic properties of the study drugs.
In the first, naïve pooled analyses were performed separately on data from days 0 and 28 (not including EOT samples) to derive median pharmacokinetic parameters at each day. In these analyses, the median concentration at each protocol time was calculated. Individual concentration measurements below the LLOQ were set to LLOQ/2 when calculating the median values. It was assumed that the participants had no drug concentrations at time 0.
Sofosbuvir and GS-331007 were extracted from 100 µL of plasma using phospholipid removal in the 96-well plate format (Phree, 8E-S133-TGB, Phenomenex), followed by separation on a Gemini, 50 mm × 2.0 mm I.D. 5 µm, column (00B-4435-B0, Phenomenex). Quantification was performed using selected reaction monitoring for the transitions m/z 530.2–>243.2 (sofosbuvir), 536.2–>243.1 (isotope-labelled internal standard for sofosbuvir), 261.3–>113.1 (GS-331007), and 265.3–>113.1 (isotope-labelled internal standard for GS-331007).
The lower limit of quantification (LLOQ) was set to 1.95 ng/mL for sofosbuvir and 20.5 ng/mL for GS-331007. A total of 9 quality control samples (3×low, 3×mid and 3×high concentration) were analysed for each analyte within each batch of clinical samples (96-well plate), resulting in an accuracy of 2.81–2.93% RSE for sofosbuvir and 2.19–3.50% RSE for GS-331007.
DCV was extracted from 100 µL of plasma using supported liquid extraction in the 96-well plate format (ISOLUTE SLE +96 well plate, 820–0200 P01, Biotage), followed by separation on a Gemini, 50 mm × 2.0 mm I.D. 5 µm, column (00B-4435-B0, Phenomenex). Quantification was performed using selected reaction monitoring for the transitions m/z 739.5–>339.3 (DCV) and 747.5–>339.3 (isotope-labelled internal standard for DCV). The LLOQ was set to 1.64 ng/mL for DCV. A total of 9 quality control samples (3×low, 3×mid and 3×high concentration) were analysed within each batch of clinical samples (96-well plate), resulting in an accuracy of 2.46–2.62% RSE for DCV.
Maximum concentration (Cmax) and time to reach maximum concentration (tmax) were derived directly from the observed drug concentrations. The software’s automatic slope calculator was used to derive the elimination rate (λ) (adjusted R2 value with uniform weighting) and terminal elimination half-life (t1/2). The drug exposure measured as area under the concentration-time curve (AUC) was calculated for each drug using the trapezoidal method. Linear interpolation was used for acceding concentrations and log-linear interpolation for descending concentrations. For the individual analysis, the linear method was used for all measurements due to accumulation between the day 0 and day 28 measurements. […]

[2] = Plasma drug exposure, individual non-compartmental analysis (days 0 and 28 pooled); format: in vivo, human; set-up: AUC(0-t) / AUClast: concentration or dose not given beside the values; conditions: median (5th-95th percentile); for AUC(0-t): human
Protocol: as §1, §2
In the second analysis, data from days 0 and 28 were pooled for each individual. […] The mean value of drug concentrations was used if patients had two or more samples taken at the same time point. These derived individual drug exposures were used to evaluate the relationship between drug exposure and therapeutic outcome. It was assumed that the participants had no drug concentrations at time 0. In this analysis, the first measurement below LLOQ in a series of LLOQ samples was imputed as LLOQ/2 and the later measurements were ignored. In both approaches, SOF samples taken at ≥24 hr post-dose were excluded. […] In addition, outcome variables and the relationship between outcome variables and drug exposure were evaluated. Additional detail of the PK/PD analysis is provided in Appendix 1.
Maximum concentration (Cmax) and time to reach maximum concentration (tmax) were derived directly from the observed drug concentrations. The software’s automatic slope calculator was used to derive the elimination rate (λ) (adjusted R2 value with uniform weighting) and terminal elimination half-life (t1/2). The drug exposure measured as area under the concentration-time curve (AUC) was calculated for each drug using the trapezoidal method. Linear interpolation was used for acceding concentrations and log-linear interpolation for descending concentrations. For the individual analysis, the linear method was used for all measurements due to accumulation between the day 0 and day 28 measurements. Both the AUC to the last time point (AUClast, 8 hours for SOF and 24 hours for GS-331007 and DCV) and AUC to infinity (AUCinf) were calculated.
Two different sampling schedules were used to collect pharmacokinetic samples on day 0 and day 28, resulting in an overlapping sampling profile overall. Therefore, data collected within an individual on a specific day was not dense enough to justify a non-compartment analysis. […] Two separate pharmacokinetic analyses were carried out. A naïve-pooled analysis was performed separately conducted on day 0 and 28 data. […] Therefore, a second analysis was performed in which the data from day 0 and 28 were pooled for each individual. […] However, the individual analysis should still generate median exposure values for each patient, which can be linked with treatment outcome. Another drawback is that no pre-dose samples were collected.

[3] = cited from earlier work; for dose proportionality of AUC: dose range of 200–1200 mg, ref Smolders et al., 2019
[4] = individual analysis, all patients (n=37)

drug accumulation [1]: Drug accumulation was observed
Cmax ([1]; human, oral, Day 28, plasma, read-out: Cmax): 1110 ng/mL
AUC(0-t) ([1]; human, plasma, oral, Day 0): 11400 ng·h/mL
half-life ([1]; human, plasma, oral, Day 28): 8.18 h
AUC(0-t) ([1]; human, plasma, oral, Day 28): 12400 ng·h/mL
half-life ([1]; human, plasma, oral, Day 0): 7.31 h
tmax ([1]; human, plasma, oral, Day 0, read-out: tmax): 3 h
AUC(0-inf) ([1]; human, plasma, Day 0): 12800 ng·h/mL
AUC(0-inf) ([1]; human, plasma, Day 28): 14400 ng·h/mL
Cmax ([1]; human, Day 0, plasma, oral SOF 400 mg + DCV 60 mg, read-out: Cmax): 1170 ng/mL
AUC(0-t) ([2]; plasma, oral, 4-week cures (n=15), read-out: Median AUClast): 13000 ng·h/mL
AUC(0-t) ([2]; plasma, oral, 4-week failures (n=8), read-out: Median AUClast): 13200 ng·h/mL
AUC(0-t) ([2]; plasma, oral, 8-week cures (n=14), read-out: Median AUClast): 14200 ng·h/mL
AUC(0-t) ([2]; plasma, oral, individual analysis, all patients (n=37), read-out: AUClast): 9770 ng·h/mL
SMILES: COC(=O)N[C@H](C(=O)N1CCC[C@H]1c1nc(-c2ccc(-c3ccc(-c4c[nH]c([C@@H]5CCCN5C(=O)[C@@H](NC(=O)OC)C(C)C)n4)cc3)cc2)c[nH]1)C(C)C [Daclatasvir, daclatasvir]

t1/2, terminal elimination half-life ([1]; Day 0): 9.20 h
tmax ([1]; Day 0): 3.00 h
Cmax ([1]; Day 0, plasma, oral SOF 400 mg + DCV 60 mg): 988 ng/mL
AUCINF ([1]; Day 0): 12,700 h×ng/mL
AUClast ([1]; Day 0): 10,500 h×ng/mL
t1/2, terminal elimination half-life ([1]; Day 28): 12.4 h
tmax ([1]; Day 28): 4.00 h
Cmax ([1]; Day 28, plasma): 1,230 ng/mL
AUCINF ([1]; Day 28): 20,400 h×ng/mL
AUClast ([1]; Day 28): 14,600 h×ng/mL
drug accumulation [1]: Drug accumulation was observed
Median AUClast ([2]; 4-week cures (n=15)): 11,700 (8420–14,100) h×ng/ml
Median AUClast ([2]; 4-week failures (n=8)): 15,100 (9240–19,700) h×ng/ml
Median AUClast ([2]; 8-week cures (n=14)): 14,000 (10,200–17,400) h×ng/ml
AUClast [2, 4]: 3,430 (2,200-4,720) h×ng/mL
SMILES: C[C@@]1(F)[C@H](O)[C@@H](CO)O[C@H]1n1ccc(=O)[nH]c1=O [GS-331007]
dose proportionality of AUC [3]: near dose proportional

SMILES: CC(C)OC(=O)[C@H](C)N[P@](=O)(OC[C@H]1O[C@@H](n2ccc(=O)[nH]c2=O)[C@](C)(F)[C@@H]1O)Oc1ccccc1 [Sofosbuvir, sofosbuvir]
tmax ([1]; Day 0): 1.00 h
half-life ([1]; human, in vivo, Day 0): 0.67 h
AUC(0-t) ([1]; human, in vivo, Day 0): 1550 ng·h/mL
half-life ([1]; human, in vivo, Day 28): 0.65 h
AUC(0-t) ([1]; human, in vivo, Day 28): 1600 ng·h/mL
AUC(0-inf) ([1]; human, in vivo, Day 0): 1550 ng·h/mL
AUC(0-inf) ([1]; human, in vivo, Day 28): 1600 ng·h/mL
Cmax ([1]; human, in vivo, Day 0, plasma, oral SOF 400 mg + DCV 60 mg, read-out: Cmax): 1320 ng/mL
Cmax ([1]; human, in vivo, Day 28, plasma, read-out: Cmax): 1070 ng/mL
AUC(0-t) ([2]; in vivo, 4-week cures (n=15), read-out: Median AUClast): 2360 ng·h/mL
AUC(0-t) ([2]; in vivo, 4-week failures (n=8), read-out: Median AUClast): 2220 ng·h/mL
AUC(0-t) ([2]; in vivo, 8-week cures (n=14), read-out: Median AUClast): 2120 ng·h/mL
AUClast [2, 4]: 1,140 (598-2,150) h×ng/mL
dose proportionality of AUC [3]: near dose proportional
half-life ([3]; ref de Kanter et al., 2014): less than 1 hr
